ChEMBL document CHEMBL3992504 (Eur J Med Chem, 2017)
pIC50: −log10 of the molar value.

Columns and labels:
[1] = target: ALK tyrosine kinase receptor (Homo sapiens) (UniProt Q9UM73)
Description: Inhibition of EML4 fused ALK in human NCI-H3122 cells assessed as cell growth inhibition measured after 72 hrs by SRB assay

[2] = target: ALK tyrosine kinase receptor (Homo sapiens) (UniProt Q9UM73); remark: listed apart in the source
Description: Inhibition of EML4 fused ALK (unknown origin) expressed in mouse BA/F3 cells assessed as cell growth inhibition measured after 72 hrs by SRB assay

[3] = Inhibition of ALK T1151-L1152 insT mutant (unknown origin) using peptide as substrate measured after 30 mins by fluorescence assay; parameters: species or system Homo sapiens
[4] = Tmax in rat at 10 mg/kg administered via oral gavage by LC/MS/MS analysis; format: ADME, organism-based; conditions: in vivo
[5] = Half life in rat at 10 mg/kg administered via oral gavage by LC/MS/MS analysis; format: ADME, organism-based; conditions: in vivo
[6] = AUCt in rat at 10 mg/kg administered via oral gavage by LC/MS/MS analysis; format: ADME, organism-based; conditions: in vivo
[7] = AUC (infinity) in rat at 10 mg/kg administered via oral gavage by LC/MS/MS analysis; format: ADME, organism-based; parameters: dose 10 mg/kg, time infinity, route oral; conditions: in vivo
[8] = system: Mus musculus; assay: Toxicity in BALB/c nu/nu mouse xenografted with human NCI-H3122 cells assessed as change in body weight at 50 mg/kg administered via oral gavage for 14 days; format: organism-based; conditions: in vivo, 336 h
[9] = target: ALK tyrosine kinase receptor (Homo sapiens, UniProt Q9UM73, G1202R); assay: Inhibition of ALK G1202R mutant (unknown origin) using peptide as substrate measured after 30 mins by fluorescence assay
ALK tyrosine kinase receptor (Homo sapiens, UniProt Q9UM73, G1202R), sequence (Q9UM73 19-1620 G1202R limits assumed): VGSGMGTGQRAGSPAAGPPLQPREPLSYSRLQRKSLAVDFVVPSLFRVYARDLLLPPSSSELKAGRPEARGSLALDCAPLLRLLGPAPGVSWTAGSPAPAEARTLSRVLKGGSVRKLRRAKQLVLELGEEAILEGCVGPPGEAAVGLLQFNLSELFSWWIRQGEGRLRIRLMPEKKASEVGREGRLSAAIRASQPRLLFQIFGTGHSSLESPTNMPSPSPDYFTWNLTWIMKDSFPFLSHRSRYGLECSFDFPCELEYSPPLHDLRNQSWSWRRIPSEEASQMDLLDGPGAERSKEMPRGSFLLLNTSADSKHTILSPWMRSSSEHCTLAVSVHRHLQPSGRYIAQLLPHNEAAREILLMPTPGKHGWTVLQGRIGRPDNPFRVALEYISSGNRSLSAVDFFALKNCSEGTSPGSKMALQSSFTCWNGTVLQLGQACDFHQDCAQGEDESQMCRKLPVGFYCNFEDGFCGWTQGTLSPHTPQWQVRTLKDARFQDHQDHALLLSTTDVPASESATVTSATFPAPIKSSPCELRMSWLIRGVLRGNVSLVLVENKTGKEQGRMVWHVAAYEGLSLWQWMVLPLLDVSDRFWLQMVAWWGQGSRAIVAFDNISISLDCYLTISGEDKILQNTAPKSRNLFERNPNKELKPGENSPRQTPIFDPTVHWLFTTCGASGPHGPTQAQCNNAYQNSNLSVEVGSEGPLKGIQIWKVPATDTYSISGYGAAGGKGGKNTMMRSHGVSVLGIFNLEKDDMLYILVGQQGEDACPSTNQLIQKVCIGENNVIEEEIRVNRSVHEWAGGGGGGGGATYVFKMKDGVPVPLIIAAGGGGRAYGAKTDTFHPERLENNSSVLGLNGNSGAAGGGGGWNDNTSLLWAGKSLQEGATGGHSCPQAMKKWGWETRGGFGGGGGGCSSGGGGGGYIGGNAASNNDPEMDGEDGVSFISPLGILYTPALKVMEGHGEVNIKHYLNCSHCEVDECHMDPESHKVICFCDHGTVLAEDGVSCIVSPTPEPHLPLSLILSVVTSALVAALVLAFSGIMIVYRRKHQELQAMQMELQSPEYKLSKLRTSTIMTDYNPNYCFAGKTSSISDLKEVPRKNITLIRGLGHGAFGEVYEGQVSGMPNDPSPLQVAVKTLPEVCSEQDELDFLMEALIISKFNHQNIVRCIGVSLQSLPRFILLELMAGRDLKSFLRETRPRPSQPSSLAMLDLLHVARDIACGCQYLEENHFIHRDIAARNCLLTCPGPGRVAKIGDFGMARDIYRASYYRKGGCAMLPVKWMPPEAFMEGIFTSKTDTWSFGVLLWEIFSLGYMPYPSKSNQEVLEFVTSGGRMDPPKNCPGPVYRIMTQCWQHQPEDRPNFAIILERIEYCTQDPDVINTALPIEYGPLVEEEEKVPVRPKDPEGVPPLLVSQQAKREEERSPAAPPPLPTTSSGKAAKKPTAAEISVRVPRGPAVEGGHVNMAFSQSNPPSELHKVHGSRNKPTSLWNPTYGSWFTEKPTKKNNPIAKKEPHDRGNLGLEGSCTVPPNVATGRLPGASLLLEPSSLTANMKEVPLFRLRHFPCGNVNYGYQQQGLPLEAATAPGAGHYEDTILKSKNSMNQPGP

[10] = target: ALK tyrosine kinase receptor (Homo sapiens, UniProt Q9UM73, G1269A); assay: Inhibition of ALK G1269A mutant (unknown origin) using peptide as substrate measured after 30 mins by fluorescence assay
ALK tyrosine kinase receptor (Homo sapiens, UniProt Q9UM73, G1269A), sequence (Q9UM73 19-1620 G1269A limits assumed): as the sequence (Q9UM73 19-1620 G1202R limits assumed) above, with R1184G, G1251A counted along it

[11] = target: ALK tyrosine kinase receptor (Homo sapiens, UniProt Q9UM73, F1174L); assay: Inhibition of ALK F1174L mutant (unknown origin) using peptide as substrate measured after 30 mins by fluorescence assay
ALK tyrosine kinase receptor (Homo sapiens, UniProt Q9UM73, F1174L), sequence (Q9UM73 19-1620 F1174L limits assumed): as the sequence (Q9UM73 19-1620 G1202R limits assumed) above, with F1156L, R1184G counted along it

[12] = target: ALK tyrosine kinase receptor (Homo sapiens, UniProt Q9UM73, C1156Y); assay: Inhibition of ALK C1156Y mutant (unknown origin) using peptide as substrate measured after 30 mins by fluorescence assay
ALK tyrosine kinase receptor (Homo sapiens, UniProt Q9UM73, C1156Y), sequence (Q9UM73 19-1620 C1156Y limits assumed): as the sequence (Q9UM73 19-1620 G1202R limits assumed) above, with C1138Y, R1184G counted along it

[13] = Cmax in rat at 10 mg/kg administered via oral gavage by LC/MS/MS analysis; format: ADME, organism-based; parameters: dose 10 mg/kg, route oral; conditions: in vivo

ALK tyrosine kinase receptor (Homo sapiens), sequence (Q9UM73 19-1620 limits assumed): as the sequence (Q9UM73 19-1620 G1202R limits assumed) above, with R1184G counted along it

Row | SMILES | CC50 [1] [µM] | CC50 [2] [µM] | also measured
1 | COc1cc(C(C)(C)N(C)C)c(C)cc1Nc1ncc(Cl)c(Nc2ccccc2S(=O)(=O)C(C)C)n1 | 0.035 | 0.02 | 
2 | COc1cc(CCN)c(C)cc1Nc1ncc(Cl)c(Nc2ccccc2S(=O)(=O)C(C)C)n1 | 0.06 | 0.068 | 
3 | Cc1cc(Nc2ncc(Cl)c(Nc3ccccc3S(=O)(=O)C(C)C)n2)c(OC(C)C)cc1C1CCNCC1 [CERITINIB] |  |  | pIC50 [3]: 9.20; Tmax [4]: 7.33 h; half-life [5]: 10.3 h; AUC(0-t) [6]: 1380 ng·h/mL; AUC(0-inf) [7]: 2650 ng·h/mL; Activity [8]: Non-Toxic
4 | COc1cc(CNC=O)c(C)cc1Nc1ncc(Cl)c(Nc2ccccc2S(=O)(=O)C(C)C)n1 |  | 0.015 | 
5 | CNCc1cc(OC)c(Nc2ncc(Cl)c(Nc3ccccc3S(=O)(=O)C(C)C)n2)cc1C | 0.025 | 0.015 | 
6 | CNCCc1cc(OC)c(Nc2ncc(Cl)c(Nc3ccccc3S(=O)(=O)C(C)C)n2)cc1C | 0.02 | 0.013 | 
7 | COc1cc(C(C)(C)NC=O)c(C)cc1Nc1ncc(Cl)c(Nc2ccccc2S(=O)(=O)C(C)C)n1 | 0.052 | 0.024 | 
8 | COc1cc(C(C)(C)C#N)c(C)cc1Nc1ncc(Cl)c(Nc2ccccc2S(=O)(=O)C(C)C)n1 | 0.25 | 0.25 | 
9 | COc1cc(CCN(C)C)c(C)cc1Nc1ncc(Cl)c(Nc2ccccc2S(=O)(=O)C(C)C)n1 | 0.013 | 0.01 | pIC50 [9]: 8.74; pIC50 [10]: 9.40; pIC50 [3]: 9.20; pIC50 [11]: 9.25; pIC50 [12]: 8.96; Tmax [4]: 4 h; Cmax [13]: 263 ng/mL; half-life [5]: 7.48 h; AUC(0-t) [6]: 3750 ng·h/mL; AUC(0-inf) [7]: 4250 ng·h/mL; Activity [8]: Non-Toxic
10 | COc1cc(C(C)(C)CN)c(C)cc1Nc1ncc(Cl)c(Nc2ccccc2S(=O)(=O)C(C)C)n1 | 0.053 | 0.036 | 
11 | COc1cc(CN(C)C)c(C)cc1Nc1ncc(Cl)c(Nc2ccccc2S(=O)(=O)C(C)C)n1 | 0.037 | 0.021 | 
12 | COc1cc(C(C)(C)N)c(C)cc1Nc1ncc(Cl)c(Nc2ccccc2S(=O)(=O)C(C)C)n1 | 0.012 | 0.012 | 
13 | COc1cc(C(C)(C)CNC=O)c(C)cc1Nc1ncc(Cl)c(Nc2ccccc2S(=O)(=O)C(C)C)n1 | 0.063 | 0.038 | 
14 | CNC(C)(C)c1cc(OC)c(Nc2ncc(Cl)c(Nc3ccccc3S(=O)(=O)C(C)C)n2)cc1C | 0.029 | 0.015 | 
15 | COc1cc(CCNC=O)c(C)cc1Nc1ncc(Cl)c(Nc2ccccc2S(=O)(=O)C(C)C)n1 | 0.068 | 0.06 | 
16 | COc1cc(CC#N)c(C)cc1Nc1ncc(Cl)c(Nc2ccccc2S(=O)(=O)C(C)C)n1 | 0.074 | 0.061 | 
17 | COc1cc(C(C)(C)CN(C)C)c(C)cc1Nc1ncc(Cl)c(Nc2ccccc2S(=O)(=O)C(C)C)n1 | 0.026 | 0.014 | 
18 | CNCC(C)(C)c1cc(OC)c(Nc2ncc(Cl)c(Nc3ccccc3S(=O)(=O)C(C)C)n2)cc1C | 0.041 | 0.019 | 
